The supplement of paper PMC10307832

Experiments:
Experiment in all cases: relative viability (nuclei count vs DMSO), 5 days (fraction); higher = more cells survive
HCC-78 = test system: HCC-78
Procedure, shortened: (§1)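 Dosing by pin tool came one day after lung cancer cell lines were seeded in 1536-well plates, using either one drug or a fixed anchor-drug dose plus five library-drug doses (not always all listed) in √10 steps. After 5 days, nuclei were counted on 4× images. Relative viability is treated-well nuclei count divided by vehicle-well nuclei count, and values are medians of duplicate plates.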

LCLC-97TM1 = test system: LCLC-97TM1
Procedure, shortened: as §1

NCI-H2009 = test system: NCI-H2009
Procedure, shortened: as §1

NCI-H1993 = test system: NCI-H1993
Procedure, shortened: as §1

A-427 = test system: A-427
Procedure, shortened: as §1

ChaGo-K-1 = test system: ChaGo-K-1
Procedure, shortened: as §1

201T = test system: 201T
Procedure, shortened: as §1

SW 1573 = test system: SW 1573
Procedure, shortened: as §1

COR-L23 = test system: COR-L23
Procedure, shortened: as §1

NCI-H650 = test system: NCI-H650
Procedure, shortened: as §1

NCI-H460 = test system: NCI-H460
Procedure, shortened: as §1

NCI-H1650 = test system: NCI-H1650
Procedure, shortened: as §1

HARA = test system: HARA
Procedure, shortened: as §1

HCC-15 = test system: HCC-15
Procedure, shortened: as §1

NCI-H2023 = test system: NCI-H2023
Procedure, shortened: as §1

HCC-366 = test system: HCC-366
Procedure, shortened: as §1

LCLC-103H = test system: LCLC-103H
Procedure, shortened: as §1

NCI-H2126 = test system: NCI-H2126
Procedure, shortened: as §1

HCC-44 = test system: HCC-44
Procedure, shortened: as §1

NCI-H441 = test system: NCI-H441
Procedure, shortened: as §1

LOU-NH91 = test system: LOU-NH91
Procedure, shortened: as §1

NCI-H1734 = test system: NCI-H1734
Procedure, shortened: as §1

RERF-LC-KJ = test system: RERF-LC-KJ
Procedure, shortened: as §1

Work on `O=C(O)CCCCC(CCSCc1ccccc1)SCc1ccccc1` (centres undefined) [CPI-613] + O=C(c1cc(Cc2n[nH]c(=O)c3ccccc23)ccc1F)N1CCN(C(=O)C2CC2)CC1 [Olaparib] (partner 8 µM) yielded a relative viability (HCC-78; first compound 15.81 µM) of 0.792, a relative viability (HCC-78; first compound 50 µM) of 0.857 and a relative viability (HCC-78; first compound 158.11 µM) of 0.842. The relative viability (HCC-78; first compound 500 µM) was 0.711, the relative viability (LCLC-97TM1; first compound 5 µM) was 0.322 and the relative viability (LCLC-97TM1; first compound 15.81 µM) was 0.287. For the same compound, the relative viability (LCLC-97TM1; first compound 50 µM) was 0.372, the relative viability (LCLC-97TM1; first compound 158.11 µM) was 0.183 and the relative viability (LCLC-97TM1; first compound 500 µM) was 0.191. The relative viability (NCI-H2009; first compound 5 µM) was 0.703, the relative viability (NCI-H2009; first compound 15.81 µM) was 0.707 and the relative viability (NCI-H2009; first compound 50 µM) was 0.67. The relative viability (NCI-H2009; first compound 158.11 µM) was 0.109, the relative viability (NCI-H2009; first compound 500 µM) was 0.0171 and the relative viability (NCI-H1993; first compound 5 µM) was 1.15. It also gave a relative viability (NCI-H1993; first compound 15.81 µM) of 0.918, a relative viability (NCI-H1993; first compound 50 µM) of 0.908 and a relative viability (NCI-H1993; first compound 158.11 µM) of 0.6. It also gave a relative viability (NCI-H1993; first compound 500 µM) of 0.421, a relative viability (A-427; first compound 5 µM) of 0.775 and a relative viability (A-427; first compound 15.81 µM) of 0.7. It also gave a relative viability (A-427; first compound 50 µM) of 0.711, a relative viability (A-427; first compound 158.11 µM) of 0.229 and a relative viability (A-427; first compound 500 µM) of 0.177. For the same compound, the relative viability (ChaGo-K-1; first compound 5 µM) was 0.4, the relative viability (ChaGo-K-1; first compound 15.81 µM) was 0.411 and the relative viability (ChaGo-K-1; first compound 50 µM) was 0.412. The relative viability (ChaGo-K-1; first compound 158.11 µM) was 0.319, the relative viability (ChaGo-K-1; first compound 500 µM) was 0.251 and the relative viability (201T; first compound 5 µM) was 0.849. For the same compound, the relative viability (201T; first compound 15.81 µM) was 0.788, the relative viability (201T; first compound 50 µM) was 0.776 and the relative viability (201T; first compound 158.11 µM) was 0.594. It also gave a relative viability (201T; first compound 500 µM) of 0.633, a relative viability (SW 1573; first compound 5 µM) of 0.442 and a relative viability (SW 1573; first compound 15.81 µM) of 0.395. It also gave a relative viability (SW 1573; first compound 50 µM) of 0.406, a relative viability (SW 1573; first compound 158.11 µM) of 0.135 and a relative viability (SW 1573; first compound 500 µM) of 0.071. It also gave a relative viability (COR-L23; first compound 5 µM) of 0.369, a relative viability (COR-L23; first compound 15.81 µM) of 0.299 and a relative viability (COR-L23; first compound 50 µM) of 0.389. The relative viability (COR-L23; first compound 158.11 µM) was 0.175, the relative viability (COR-L23; first compound 500 µM) was 0.0294 and the relative viability (NCI-H650; first compound 5 µM) was 0.404. It also gave a relative viability (NCI-H650; first compound 15.81 µM) of 0.393, a relative viability (NCI-H650; first compound 50 µM) of 0.366 and a relative viability (NCI-H650; first compound 158.11 µM) of 0.339. The relative viability (NCI-H650; first compound 500 µM) was 0.359, the relative viability (NCI-H460; first compound 5 µM) was 0.37 and the relative viability (NCI-H460; first compound 15.81 µM) was 0.321. The relative viability (NCI-H460; first compound 50 µM) was 0.373, the relative viability (NCI-H460; first compound 158.11 µM) was 0.274 and the relative viability (NCI-H460; first compound 500 µM) was 0.361. For the same compound, the relative viability (NCI-H1650; first compound 5 µM) was 0.728, the relative viability (NCI-H1650; first compound 15.81 µM) was 0.791 and the relative viability (NCI-H1650; first compound 50 µM) was 0.749. The relative viability (NCI-H1650; first compound 158.11 µM) was 0.416, the relative viability (NCI-H1650; first compound 500 µM) was 0.0224 and the relative viability (HARA; first compound 5 µM) was 0.509. For the same compound, the relative viability (HARA; first compound 15.81 µM) was 0.813, the relative viability (HARA; first compound 50 µM) was 0.772 and the relative viability (HARA; first compound 158.11 µM) was 0.25. For the same compound, the relative viability (HARA; first compound 500 µM) was 0.0476, the relative viability (HCC-15; first compound 5 µM) was 0.743 and the relative viability (HCC-15; first compound 15.81 µM) was 0.712. The relative viability (HCC-15; first compound 50 µM) was 0.612, the relative viability (HCC-15; first compound 158.11 µM) was 0.178 and the relative viability (HCC-15; first compound 500 µM) was 0.0853. The relative viability (NCI-H2023; first compound 5 µM) was 0.47, the relative viability (NCI-H2023; first compound 15.81 µM) was 0.425 and the relative viability (NCI-H2023; first compound 50 µM) was 0.41. It also gave a relative viability (NCI-H2023; first compound 158.11 µM) of 0.134, a relative viability (NCI-H2023; first compound 500 µM) of 0.009 and a relative viability (HCC-366; first compound 5 µM) of 0.392. The relative viability (HCC-366; first compound 15.81 µM) was 0.37, the relative viability (HCC-366; first compound 50 µM) was 0.41 and the relative viability (HCC-366; first compound 158.11 µM) was 0.0554. It also gave a relative viability (HCC-366; first compound 500 µM) of 0.0079, a relative viability (LCLC-103H; first compound 5 µM) of 0.755 and a relative viability (LCLC-103H; first compound 15.81 µM) of 0.669. It also gave a relative viability (LCLC-103H; first compound 50 µM) of 0.733, a relative viability (LCLC-103H; first compound 158.11 µM) of 0.55 and a relative viability (LCLC-103H; first compound 500 µM) of 0.717. The relative viability (NCI-H2126; first compound 5 µM) was 0.904, the relative viability (NCI-H2126; first compound 15.81 µM) was 1.07 and the relative viability (NCI-H2126; first compound 50 µM) was 0.845. It also gave a relative viability (NCI-H2126; first compound 158.11 µM) of 0.757, a relative viability (NCI-H2126; first compound 500 µM) of 0.128 and a relative viability (HCC-44; first compound 5 µM) of 0.97. It also gave a relative viability (HCC-44; first compound 15.81 µM) of 0.95, a relative viability (HCC-44; first compound 50 µM) of 0.925 and a relative viability (HCC-44; first compound 158.11 µM) of 0.629. For the same compound, the relative viability (HCC-44; first compound 500 µM) was 0.469, the relative viability (NCI-H441; first compound 5 µM) was 0.456 and the relative viability (NCI-H441; first compound 15.81 µM) was 0.483. The relative viability (NCI-H441; first compound 50 µM) was 0.596, the relative viability (NCI-H441; first compound 158.11 µM) was 0.109 and the relative viability (NCI-H441; first compound 500 µM) was 0.0239. It also gave a relative viability (LOU-NH91; first compound 5 µM) of 0.883, a relative viability (LOU-NH91; first compound 15.81 µM) of 0.86 and a relative viability (LOU-NH91; first compound 50 µM) of 0.867. For the same compound, the relative viability (LOU-NH91; first compound 158.11 µM) was 0.442, the relative viability (LOU-NH91; first compound 500 µM) was 0.533 and the relative viability (NCI-H1734; first compound 5 µM) was 0.584. For the same compound, the relative viability (NCI-H1734; first compound 15.81 µM) was 0.596, the relative viability (NCI-H1734; first compound 50 µM) was 0.516 and the relative viability (NCI-H1734; first compound 158.11 µM) was 0.373. It also gave a relative viability (NCI-H1734; first compound 500 µM) of 0.173, a relative viability (RERF-LC-KJ; first compound 5 µM) of 0.979 and a relative viability (RERF-LC-KJ; first compound 15.81 µM) of 0.83. It also gave a relative viability (RERF-LC-KJ; first compound 50 µM) of 0.804, a relative viability (RERF-LC-KJ; first compound 158.11 µM) of 0.273 and a relative viability (RERF-LC-KJ; first compound 500 µM) of 0.133.
